In patent US8652787B2, “Use of ERBB4 as a prognostic and therapeutic marker for melanoma” (The United States of America, as represented by the …, priority 2008, dated 2014):
“Also recorded” adds a separate entry of the source.

Key:
[1] = test system: melanoma cells harboring mutant ERBB4 or WT ERBB4; test: Flow cytometry (PI staining) of the sub-G1 apoptotic population after lapatinib; assay type: cell-based, human; conditions: 72 hours, 5 μM lapatinib, FACS
Description: (§1) Cells were treated for 72 hours in the presence of increasing concentrations (0.01-30 μM) of lapatinib, and relative cell number was estimated by methylene blue protein staining and plotted as percent survival when compared to vehicle-treated control versus Log (lapatinib) nM (where 1 is 10 nM lapatinib). Fitted lines were generated using 4-parameter nonlinear regression via GraphPad Prism. […] The IC50 values for inhibition of cell growth by 72 hour treatment with lapatinib of a larger panel of lines harboring WT and mutant ERBB4 were analyzed using GraphPad Prism v.5 (n=3). (C) Immunoprecipitation and western blot analysis of ERBB4 autophosphorylation in cells treated with lapatinib. Cells were treated for 1 hour with lapatinib or vehicle alone as control. […] The activity of ERBB4, AKT and ERBB2 was determined by immunoblotting with phospho-specific antibodies. […] Lysates and immunoprecipitates were analyzed by western blotting using the indicated antibodies. […] (E) Quantitative assessment of data from 2 cell lines harboring WT ERBB4 and 3 cell lines harboring mutant ERBB4 that were performed similarly to (D). […] (G) Quantitation of FACS-sorted lapatinib-treated cells. The percent apoptotic cells were determined based on the sub-G1 population for vehicle-treated cells or lapatinib-treated cells.

AKT (P-S473) = test: Western blot of AKT phosphorylation in lapatinib-treated melanoma cells; assay type: cell-based, human; conditions: 1 hour, 5 μM lapatinib
Description: as §1

[2] = test system: melanoma cell lines harboring mutant ERBB4; test: Growth inhibition of melanoma cell lines by lapatinib (72 h, methylene blue staining / SYBR Green I); assay type: cell-based, human
Description: as §1

ERBB4 (P-Y1162) = test: Immunoprecipitation and western blot of ERBB4 autophosphorylation in lapatinib-treated melanoma cells; assay type: cell-based, human
Description: as §1

ERBB2 (P-Y1248) = ERBB2 (P-Y1248) (Homo sapiens, UniProt P04626); test: Immunoprecipitation and western blot of ERBB2 phosphorylation in lapatinib-treated melanoma cells; assay type: cell-based; conditions: 1 hour, 5 μM lapatinib
Sequence of ERBB2 (P-Y1248) (P04626 23-1255): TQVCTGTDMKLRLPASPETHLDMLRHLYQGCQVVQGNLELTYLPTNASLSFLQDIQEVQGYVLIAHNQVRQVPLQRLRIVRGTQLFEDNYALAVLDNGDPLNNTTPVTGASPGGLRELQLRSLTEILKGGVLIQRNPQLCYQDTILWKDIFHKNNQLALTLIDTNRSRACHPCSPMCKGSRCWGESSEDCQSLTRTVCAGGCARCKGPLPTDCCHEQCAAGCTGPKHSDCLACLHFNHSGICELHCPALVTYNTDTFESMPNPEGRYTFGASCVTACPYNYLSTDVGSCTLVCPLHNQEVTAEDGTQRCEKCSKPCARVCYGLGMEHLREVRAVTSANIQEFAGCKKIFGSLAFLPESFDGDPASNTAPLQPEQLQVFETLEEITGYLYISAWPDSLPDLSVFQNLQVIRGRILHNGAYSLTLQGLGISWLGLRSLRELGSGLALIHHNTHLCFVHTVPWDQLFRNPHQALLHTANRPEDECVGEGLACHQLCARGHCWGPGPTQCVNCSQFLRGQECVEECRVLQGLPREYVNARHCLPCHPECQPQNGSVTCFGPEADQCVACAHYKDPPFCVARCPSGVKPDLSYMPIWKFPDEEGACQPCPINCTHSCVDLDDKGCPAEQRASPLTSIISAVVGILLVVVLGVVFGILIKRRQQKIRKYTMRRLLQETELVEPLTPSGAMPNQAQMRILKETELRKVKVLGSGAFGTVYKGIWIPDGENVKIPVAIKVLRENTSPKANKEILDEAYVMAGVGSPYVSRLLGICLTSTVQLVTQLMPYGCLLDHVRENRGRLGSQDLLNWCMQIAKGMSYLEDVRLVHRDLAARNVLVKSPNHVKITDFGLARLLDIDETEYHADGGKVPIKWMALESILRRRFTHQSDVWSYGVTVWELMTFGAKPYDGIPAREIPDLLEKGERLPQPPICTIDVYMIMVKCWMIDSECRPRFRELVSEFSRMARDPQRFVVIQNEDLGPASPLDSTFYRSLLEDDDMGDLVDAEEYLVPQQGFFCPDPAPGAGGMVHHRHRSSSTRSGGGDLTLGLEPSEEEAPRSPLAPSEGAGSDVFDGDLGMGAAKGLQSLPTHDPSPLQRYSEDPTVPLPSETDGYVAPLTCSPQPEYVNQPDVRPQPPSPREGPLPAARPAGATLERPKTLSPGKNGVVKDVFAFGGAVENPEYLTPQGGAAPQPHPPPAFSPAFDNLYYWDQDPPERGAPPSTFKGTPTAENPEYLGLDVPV
Description: as §1

ERK1 and ERK2 = test: Western blot of ERK1/2 phosphorylation in lapatinib-treated melanoma cells; assay type: cell-based, human; conditions: 72 hours, 5 μM lapatinib; P-ERK1/ERK1, P-ERK2/ERK2
Description: FIG. 14: Effect of lapatinib in ERK1/2 signaling pathways. […] Cells were treated for 72 hours with 5 μM lapatinib or vehicle as control. The activity of ERK1 and ERK2 was determined by immunoblotting with phospho-specific antibodies. Total ERK protein was also determined by immunoblotting. Shown are representative blots. (B) Quantitative assessment of data from one melanoma cell line harboring mutant ERBB4. The ratio of band intensities of P-ERK1/ERK1 or P-ERK2/ERK2 was analyzed for each melanoma cell line.
Transfected cells were washed 3× in PBS and lysed using 0.5 ml 1% NP-40 lysis buffer (1% NP-40, 50 mM Tris-HCl pH 7.5, 150 mM NaCl, complete protease inhibitor tablet, EDTA-free (Roche, Indianapolis, Ind.), 1 μM sodium orthovanadate, 1 mM sodium fluoride, and 0.1% β-mercaptoethanol) per T-75 flask for 20 minutes on ice. Lysed cells were scraped and transferred into a 1.5 mL microcentrifuge tube. Extracts were centrifuged for 10 minutes at 14,000 rpm at 4° C. […]
Scanned films from western blot analysis of SDS-PAGE were analyzed using ImageJ (NIH software). Individual bands were quantitated and plots were generated to determine the intensities in each band. The data was then exported to Microsoft Excel and analyzed further for phospho:total ratios of protein.

- fold greater sensitivity to lapatinib (from IC50) of melanoma cells harboring ERBB4 mutations than cells with WT receptor ([2]; IC50 for inhibition of cell growth, 72 hour treatment, n=3): 10- to 250 fold
- inhibition of ERBB2 in melanoma cell lines (ERBB2 (P-Y1248)): No inhibition
Compound: CS(=O)(=O)CCNCc1ccc(-c2ccc3ncnc(Nc4ccc(OCc5cccc(F)c5)c(Cl)c4)c3c2)o1 [lapatinib]
- apoptosis (sub-G1 population) of melanoma cells harboring mutant ERBB4 compared to WT ERBB4 lines [1]: increased sub-G1 population
- apoptosis (sub-G1 population) of melanoma cells harboring mutant ERBB4 compared to WT ERBB4 lines ([1]; listed as Lapatinib): markedly increased apoptosis
- inhibition of AKT activation in cells harboring mutant ERBB4 (AKT (P-S473)): specific inhibition of ERBB4 and AKT activation
- reduction of cell proliferation / sensitivity to lapatinib, ERBB4 mutant versus WT ERBB4 melanoma cells ([2]; 72 hours, 0.01-30 μM lapatinib, compared with cells containing endogenous WT ERBB4): increased sensitivity to lapatinib compared to WT ERBB4 cell lines; also recorded: reduced cell proliferation to a greater extent in cells containing endogenous ERBB4 mutations
- inhibition of ERBB4 activation in cells harboring mutant ERBB4 (ERBB4 (P-Y1162); 1 hour, 5 μM lapatinib, (P-Y1162)-ERBB4/ERBB4): specific inhibition of ERBB4 and AKT activation
- inhibition of ERBB4 receptor autophosphorylation (ERBB4 (P-Y1162); cells treated for 1 hour with lapatinib, α-P-ERBB4 (Y1162)): inhibited receptor autophosphorylation in a dose-dependent manner
- inhibition of ERK activation (ERK1 and ERK2): slightly inhibited; also recorded: increased lapatinib sensitivity with respect to ERK1 and ERK2 phosphorylation
